From PMC4323178 (Journal of thrombosis and haemostasis : JTH, 2011)

Tests used:
Conditions in all cases: SEM
DR0301 = DR0301 (Homo sapiens, UniProt P01903+P01911, A100K/A102G/A103R/A169T/F55Y/I96L/K41T/L162R/M171V/P40S/Q125H/Q178H/Q39Y/R42S/S66N/T106N/W38E/Y61H); type: binding
DR1501 = DR1501 (Homo sapiens, UniProt P01903+P01911); type: binding
HLA-DR0101 = HLA-DR0101 (Homo sapiens, UniProt P01903+P01911, A100R/D57E/F55L/F60I/F76Y/I96L/L162R/M171V/P40L/Q125E/R42F/V115G/Y59C); experiment: biochemical

Row | Compound | IC50 (DR0301) [µM] | IC50 (DR1501) [µM] | IC50 (HLA-DR0101) [µM]
1 | CC[C@H](C)[C@H](NC(=O)[C@H](CC(N)=O)NC(=O)[C@@H](N)CCC(=O)O)C(=O)N[C@@H](CCC(N)=O)C(=O)N[C@@H](CCCNC(=N)N)C(=O)N[C@@H](Cc1ccccc1)C(=O)N[C@@H](CC(C)C)C(=O)N1CCC[C@H]1C(=O)N[C@@H](CC(N)=O)C(=O)N1CCC[C@H]1C(=O)N[C@@H](C)C(=O)NCC(=O)N[C@H](C(=O)N[C@@H](CCC(N)=O)C(=O)N[C@@H](CC(C)C)C(=O)N[C@@H](CCC(=O)O)C(=O)N[C@@H](CC(=O)O)C(=O)N1CCC[C@H]1C(=O)N[C@@H](CCC(=O)O)C(=O)N[C@@H](Cc1ccccc1)C(=O)O)C(C)C [FVIII589–608] | 50 ± 4 |  | 
2 | CC[C@H](C)[C@H](NC(=O)[C@H](CC(N)=O)NC(=O)[C@H](CCC(=O)O)NC(=O)[C@@H](NC(=O)[C@H](CC(C)C)NC(=O)[C@H](Cc1ccc(O)cc1)NC(=O)[C@H](Cc1c[nH]c2ccccc12)NC(=O)[C@H](CO)NC(=O)[C@H](CCCNC(=N)N)NC(=O)[C@H](CC(N)=O)NC(=O)[C@@H](N)CCC(=O)O)[C@@H](C)O)C(=O)N[C@@H](CCC(N)=O)C(=O)N[C@@H](CS)C(=O)N[C@@H](Cc1ccccc1)C(=O)N[C@@H](CC(C)C)C(=O)N1CCC[C@H]1C(=O)N[C@@H](CC(N)=O)C(=O)N1CCC[C@H]1C(=O)N[C@@H](C)C(=O)NCC(=O)O [FVIII581–600,593C] |  | 56 ± 4 | 50 ± 3
